Experimental data: PubChem BioAssay (NCI)
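Abbreviation: GI50, concentration required for 50% inhibition of growth. The concentration for full growth arrest is given as TGI.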

Tests used:
Assay in all cases: DTP human tumour cell line panel, 384-well format
[1] = test system: SNB-19 CNS
[2] = test system: OVCAR-4 ovarian
[3] = test system: RXF 393 renal
[4] = test system: OVCAR-5 ovarian
[5] = test system: UACC-257 melanoma
[6] = test system: HCT-15 colon
[7] = test system: NCI/ADR-RES ovarian
[8] = test system: DU-145 prostate
[9] = test system: KM12 colon
[10] = test system: SR leukemia
[11] = test system: IGROV1 ovarian
[12] = test system: HL-60(TB) leukemia
[13] = test system: BT-549 breast
[14] = test system: PC-3 prostate
[15] = test system: 786-0 renal
[16] = test system: A498 renal
[17] = test system: HT29 colon
[18] = test system: EKVX NSCLC
[19] = test system: HOP-92 NSCLC
[20] = test system: OVCAR-3 ovarian
[21] = test system: UACC-62 melanoma
[22] = test system: HCC-2998 colon
[23] = test system: SN12C renal
[24] = test system: MALME-3M melanoma
[25] = test system: TK-10 renal
[26] = test system: COLO 205 colon
[27] = test system: SF-539 CNS
[28] = test system: MCF7 breast
[29] = test system: MOLT-4 leukemia
[30] = test system: SK-MEL-2 melanoma
[31] = test system: MDA-MB-231 breast
[32] = test system: NCI-H226 lung
[33] = test system: CAKI-1 renal
[34] = test system: A549 NSCLC
[35] = test system: HCT-116 colon
[36] = test system: CCRF-CEM leukemia
[37] = test system: SK-MEL-28 melanoma
[38] = test system: NCI-H322M lung
[39] = test system: ACHN renal
[40] = test system: MDA-MB-468 breast
[41] = test system: SF-295 CNS
[42] = test system: SF-268 CNS
[43] = test system: MDA-MB-435 melanoma
[44] = test system: M14 melanoma
[45] = test system: NCI-H460 NSCLC
[46] = test system: SK-MEL-5 melanoma
[47] = test system: SK-OV-3 ovarian
[48] = test system: U251 glioblastoma
[49] = test system: HS 578T breast
[50] = test system: NCI-H23 lung
[51] = test system: NCI-H522 lung
[52] = test system: HOP-62 NSCLC
[53] = test system: K-562 leukemia
[54] = test system: RPMI-8226 leukemia
[55] = test system: T-47D breast
[56] = test system: OVCAR-8 ovarian
[57] = test system: SNB-75 CNS
[58] = test system: SW-620 colon
[59] = test system: UO-31 renal

C[C@@H]1OC(O)[C@@H](F)[C@H](O)[C@@H]1O (stereo partly drawn)
GI50 [1]: > 100 µM
TGI [1]: > 100 µM
GI50 [2]: > 100 µM
TGI [2]: > 100 µM
GI50 [3]: > 100 µM
TGI [3]: > 100 µM
GI50 [4]: > 100 µM
TGI [4]: > 100 µM
GI50 [5]: > 100 µM
TGI [5]: > 100 µM
GI50 [6]: > 100 µM
TGI [6]: > 100 µM
GI50 [7]: > 100 µM
TGI [7]: > 100 µM
GI50 [8]: > 100 µM
TGI [8]: > 100 µM
GI50 [9]: > 100 µM
TGI [9]: > 100 µM
GI50 [10]: > 100 µM
TGI [10]: > 100 µM
GI50 [11]: > 100 µM
TGI [11]: > 100 µM
GI50 [12]: > 100 µM
TGI [12]: > 100 µM
GI50 [13]: > 100 µM
TGI [13]: > 100 µM
GI50 [14]: > 100 µM
TGI [14]: > 100 µM
GI50 [15]: > 100 µM
TGI [15]: > 100 µM
GI50 [16]: > 100 µM
TGI [16]: > 100 µM
GI50 [17]: > 100 µM
TGI [17]: > 100 µM
GI50 [18]: > 100 µM
TGI [18]: > 100 µM
GI50 [19]: > 100 µM
TGI [19]: > 100 µM
GI50 [20]: > 100 µM
TGI [20]: > 100 µM
GI50 [21]: > 100 µM
TGI [21]: > 100 µM
GI50 [22]: > 100 µM
TGI [22]: > 100 µM
GI50 [23]: > 100 µM
TGI [23]: > 100 µM
GI50 [24]: > 100 µM
TGI [24]: > 100 µM
GI50 [25]: > 100 µM
TGI [25]: > 100 µM
GI50 [26]: > 100 µM
TGI [26]: > 100 µM
GI50 [27]: > 100 µM
TGI [27]: > 100 µM
GI50 [28]: > 100 µM
TGI [28]: > 100 µM
GI50 [29]: > 100 µM
TGI [29]: > 100 µM
GI50 [30]: > 100 µM
TGI [30]: > 100 µM
GI50 [31]: > 100 µM
TGI [31]: > 100 µM
GI50 [32]: > 100 µM
TGI [32]: > 100 µM
GI50 [33]: > 100 µM
TGI [33]: > 100 µM
GI50 [34]: > 100 µM
TGI [34]: > 100 µM
GI50 [35]: > 100 µM
TGI [35]: > 100 µM
GI50 [36]: > 100 µM
TGI [36]: > 100 µM
GI50 [37]: > 100 µM
TGI [37]: > 100 µM
GI50 [38]: > 100 µM
TGI [38]: > 100 µM
GI50 [39]: > 100 µM
TGI [39]: > 100 µM
GI50 [40]: > 100 µM
TGI [40]: > 100 µM
GI50 [41]: > 100 µM
TGI [41]: > 100 µM
GI50 [42]: > 100 µM
TGI [42]: > 100 µM
GI50 [43]: > 100 µM
TGI [43]: > 100 µM
GI50 [44]: > 100 µM
TGI [44]: > 100 µM
GI50 [45]: > 100 µM
TGI [45]: > 100 µM
GI50 [46]: > 100 µM
TGI [46]: > 100 µM
GI50 [47]: > 100 µM
TGI [47]: > 100 µM
GI50 [48]: > 100 µM
TGI [48]: > 100 µM
GI50 [49]: > 100 µM
TGI [49]: > 100 µM
GI50 [50]: > 100 µM
TGI [50]: > 100 µM
GI50 [51]: > 100 µM
TGI [51]: > 100 µM
GI50 [52]: > 100 µM
TGI [52]: > 100 µM
GI50 [53]: > 100 µM
TGI [53]: > 100 µM
GI50 [54]: > 100 µM
TGI [54]: > 100 µM
GI50 [55]: > 100 µM
TGI [55]: > 100 µM
GI50 [56]: > 100 µM
TGI [56]: > 100 µM
GI50 [57]: > 100 µM
TGI [57]: > 100 µM
GI50 [58]: > 100 µM
TGI [58]: > 100 µM

CC[C@@H]1C(=O)N(C)c2cnc(Nc3ccc(C(=O)NC4CCN(C)CC4)cc3OC)nc2N1C1CCCC1
GI50 [1]: < 0.01 µM
TGI [1]: 0.269 µM
GI50 [2]: 0.0103 µM
TGI [2]: 0.129 µM
GI50 [3]: < 0.01 µM
TGI [3]: < 0.01 µM
GI50 [4]: < 0.01 µM
TGI [4]: 0.226 µM
GI50 [5]: < 0.01 µM
TGI [5]: 1.7 µM
GI50 [7]: 0.196 µM
TGI [7]: 0.591 µM
GI50 [8]: < 0.01 µM
TGI [8]: < 0.01 µM
GI50 [9]: < 0.01 µM
TGI [9]: < 0.01 µM
GI50 [10]: < 0.01 µM
TGI [10]: < 0.01 µM
GI50 [11]: < 0.01 µM
TGI [11]: 0.224 µM
GI50 [12]: < 0.01 µM
TGI [12]: < 0.01 µM
GI50 [13]: < 0.01 µM
TGI [13]: < 0.01 µM
GI50 [14]: < 0.01 µM
TGI [14]: 2.46 µM
GI50 [15]: < 0.01 µM
TGI [15]: 0.149 µM
GI50 [16]: < 0.01 µM
TGI [16]: 0.814 µM
GI50 [17]: < 0.01 µM
TGI [17]: 1.09 µM
GI50 [18]: < 0.01 µM
TGI [18]: 0.0621 µM
GI50 [19]: < 0.01 µM
TGI [19]: 1.05 µM
GI50 [20]: < 0.01 µM
TGI [20]: < 0.01 µM
GI50 [22]: < 0.01 µM
TGI [22]: < 0.01 µM
GI50 [23]: < 0.01 µM
TGI [23]: 0.88 µM
GI50 [25]: < 0.01 µM
TGI [25]: 0.235 µM
GI50 [26]: < 0.01 µM
TGI [26]: < 0.01 µM
GI50 [28]: < 0.01 µM
TGI [28]: 0.904 µM
GI50 [29]: < 0.01 µM
TGI [29]: < 0.01 µM
GI50 [30]: < 0.01 µM
TGI [30]: < 0.01 µM
GI50 [31]: < 0.01 µM
TGI [31]: 1.35 µM
GI50 [32]: 0.224 µM
TGI [32]: 1.92 µM
GI50 [33]: < 0.01 µM
TGI [33]: 1.27 µM
GI50 [34]: < 0.01 µM
TGI [34]: 0.121 µM
GI50 [35]: < 0.01 µM
TGI [35]: 0.135 µM
GI50 [36]: < 0.01 µM
TGI [36]: < 0.01 µM
GI50 [37]: < 0.01 µM
TGI [37]: 1.92 µM
GI50 [38]: < 0.01 µM
TGI [38]: 1.4 µM
GI50 [39]: 0.0661 µM
TGI [39]: 1.56 µM
GI50 [40]: < 0.01 µM
TGI [40]: < 0.01 µM
GI50 [42]: < 0.01 µM
TGI [42]: 0.414 µM
GI50 [43]: < 0.01 µM
TGI [43]: < 0.01 µM
GI50 [45]: < 0.01 µM
TGI [45]: < 0.01 µM
GI50 [46]: < 0.01 µM
TGI [46]: < 0.01 µM
GI50 [59]: 0.0771 µM
TGI [59]: 1.48 µM
GI50 [47]: < 0.01 µM
TGI [47]: 0.107 µM
GI50 [48]: < 0.01 µM
TGI [48]: 0.0856 µM
GI50 [49]: < 0.01 µM
TGI [49]: < 0.01 µM
GI50 [50]: < 0.01 µM
TGI [50]: < 0.01 µM
GI50 [51]: < 0.01 µM
TGI [51]: < 0.01 µM
GI50 [53]: < 0.01 µM
TGI [53]: < 0.01 µM
GI50 [54]: < 0.01 µM
TGI [54]: < 0.01 µM
GI50 [55]: < 0.01 µM
TGI [55]: 0.166 µM
GI50 [56]: < 0.01 µM
TGI [56]: < 0.01 µM
GI50 [58]: < 0.01 µM
TGI [58]: < 0.01 µM
